# Test results taken from patent US8969363B2, “Heterocyclic compounds and uses thereof” (Infinity Pharmaceuticals, Inc., priority 2011, dated 2015).
# Read-outs that look alike come from different tables or passages of the source.
# How the values were obtained:
# [1] = molecular target: T1, PI3Kα (Homo sapiens, UniProt P42336); assay: PI3 Kinase HTRF assay, PI3Kα; type: biochemical; details: 10 μM PIP2, 10 μM ATP; 'Greater than 10 μM' and 'Greater than 1 μM to 10 μM'; read-out: PI3K α IC50
# T1 construct: purchased Millipore Corporation 14-602-K
# Text: (§1) A PI3-Kinase HTRF® assay kit (cat No. 33-016) purchased from Millipore Corporation was used to screen compounds provided herein. This assay used specific, high affinity binding of the GRP1 pleckstrin homology (PH) domain to PIP3, the product of a Class 1A or 1B PI3 Kinase acting on its physiological substrate PIP2. During the detection phase of the assay, a complex was generated between the GST-tagged PH domain and biotinylated short chain PIP3. The biotinylated PIP3 and the GST-tagged PH domain recruited fluorophores (Streptavidin-Allophycocyanin and Europium-labeled anti-GST respectively) to form the fluorescence resonance energy transfer (FRET) architecture, generating a stable time-resolved FRET signal. The FRET complex was disrupted in a competitive manner by non-biotinylated PIP3, a product formed in the PI3 Kinase assay.
# (§2) PI3 Kinase α, β, γ and δ activity was assayed using the PI3 Kinase HTRF® assay kit (catalogue No. 33-016) purchased from Millipore Corporation. Purified recombinant PI3Kα (catalogue No. 14-602-K), PI3Kβ (catalogue No. 14-603-K), PI3Kγ (catalogue No. 14-558-K) and PI3Kδ (catalogue No. 14-604-K) were obtained from Millipore Corporation. Purified recombinant PI3K enzyme was used to catalyze the phosphorylation of phosphatidylinositol 4,5-bisphosphate (PIP2 at 10 μM) to phosphatidylinositol 3,4,5-trisphosphate (PIP3) in the presence of 10 μM ATP. The assay was carried out in 384-well format and detected using a Perkin Elmer EnVision Xcite Multilabel Reader. Emission ratios were converted into percent inhibitions and imported into GraphPad Prism software. The concentration necessary to achieve inhibition of enzyme activity by 50% (IC50) was calculated using concentrations ranging from 20 μM to 0.1 nM (12-point curve). IC50 values were determined using a nonlinear regression model available in GraphPad Prism 5. […]
# [2] = tested on: Balb/c splenic B cells; assay: B cell activation and proliferation assay (Alamar Blue); type: cell-based; details: Mus musculus
# Method: The ability of one or more subject compounds to inhibit B cell activation and proliferation is determined according to standard procedures known in the art. For example, an in vitro cellular proliferation assay is established that measures the metabolic activity of live cells. The assay is performed in a 96 well microtiter plate using Alamar Blue reduction. Balb/c splenic B cells are purified over a Ficoll-Paque™ PLUS gradient followed by magnetic cell separation using a MACS B cell Isolation Kit (Miletenyi). Cells are plated in 90 μl at 50,000 cells/well in B Cell Media (RPMI+10% FBS+Penn/Strep+50 μM bME+5 mM HEPES). A compound provided herein is diluted in B Cell Media and added in a 10 μl volume. Plates are incubated for 30 min at 37° C. and 5% CO2 (0.2% DMSO final concentration). A 50 μl B cell stimulation cocktail is then added containing either 10 μg/ml LPS or 5 μg/ml F(ab′)2 Donkey anti-mouse […] plus 2 ng/ml recombinant mouse IL4 in B Cell Media. Plates are incubated for 72 hours at 37° C. and 5% CO2. A volume of 15 μL of Alamar Blue reagent is added to each well and plates are incubated for 5 hours at 37° C. and 5% CO2. Alamar Blue fluoresce is read at 560Ex/590Em, and IC50 or EC50 values are calculated using GraphPad Prism 5.
# [3] = molecular target: PI3Kβ; assay: PI3 Kinase HTRF assay, PI3Kβ; type: biochemical, human; details: 10 μM PIP2, 10 μM ATP, read-out: PI3K β IC50
# Text: as §1
# as §2, with “Purified recombinant PI3Kα (catalogue No. 14-602-K), PI3Kβ (catalogue No. 14-603-K), PI3Kγ (catalogue No. 14-558-K) and PI3Kδ (catalogue No. 14-604-K) were obtained from Millipore Corporation.” left out, “The concentration necessary to achieve inhibition of enzyme activity by 50% (IC50) was calculated using concentrations ranging from 20 μM to 0.1 nM (12-point curve).” left out
# [4] = 'Greater than 10 μM' and 'Greater than 1 μM to 10 μM'
# T1 sequence (P42336 whole entry): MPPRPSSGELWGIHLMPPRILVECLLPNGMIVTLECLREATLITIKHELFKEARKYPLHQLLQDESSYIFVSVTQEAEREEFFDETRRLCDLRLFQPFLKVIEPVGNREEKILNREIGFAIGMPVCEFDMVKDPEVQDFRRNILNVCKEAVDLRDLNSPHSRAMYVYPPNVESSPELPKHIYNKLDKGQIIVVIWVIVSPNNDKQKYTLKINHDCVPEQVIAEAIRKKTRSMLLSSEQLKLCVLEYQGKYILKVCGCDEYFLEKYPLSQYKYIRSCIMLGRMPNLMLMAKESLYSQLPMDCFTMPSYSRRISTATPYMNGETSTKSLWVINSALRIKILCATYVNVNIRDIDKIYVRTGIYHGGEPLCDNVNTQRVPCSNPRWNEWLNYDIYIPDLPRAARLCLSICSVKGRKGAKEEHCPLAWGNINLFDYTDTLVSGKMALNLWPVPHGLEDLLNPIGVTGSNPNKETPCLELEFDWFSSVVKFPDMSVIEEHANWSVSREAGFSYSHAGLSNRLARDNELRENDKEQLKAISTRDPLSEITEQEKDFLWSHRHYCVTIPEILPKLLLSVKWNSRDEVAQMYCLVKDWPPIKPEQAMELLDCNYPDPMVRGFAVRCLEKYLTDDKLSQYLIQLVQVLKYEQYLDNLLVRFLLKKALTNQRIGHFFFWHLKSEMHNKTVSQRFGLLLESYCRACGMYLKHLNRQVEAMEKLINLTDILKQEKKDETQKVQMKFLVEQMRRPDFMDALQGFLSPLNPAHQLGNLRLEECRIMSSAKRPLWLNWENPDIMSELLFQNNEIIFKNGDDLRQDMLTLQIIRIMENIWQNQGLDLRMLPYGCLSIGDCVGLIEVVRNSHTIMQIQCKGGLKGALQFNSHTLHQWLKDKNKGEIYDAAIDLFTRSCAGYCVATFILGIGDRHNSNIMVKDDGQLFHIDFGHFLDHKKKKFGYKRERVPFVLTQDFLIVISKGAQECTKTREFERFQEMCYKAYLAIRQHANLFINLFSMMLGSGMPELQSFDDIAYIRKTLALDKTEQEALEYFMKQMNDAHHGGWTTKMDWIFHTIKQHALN
# T1 sequence (P27986 whole entry partner): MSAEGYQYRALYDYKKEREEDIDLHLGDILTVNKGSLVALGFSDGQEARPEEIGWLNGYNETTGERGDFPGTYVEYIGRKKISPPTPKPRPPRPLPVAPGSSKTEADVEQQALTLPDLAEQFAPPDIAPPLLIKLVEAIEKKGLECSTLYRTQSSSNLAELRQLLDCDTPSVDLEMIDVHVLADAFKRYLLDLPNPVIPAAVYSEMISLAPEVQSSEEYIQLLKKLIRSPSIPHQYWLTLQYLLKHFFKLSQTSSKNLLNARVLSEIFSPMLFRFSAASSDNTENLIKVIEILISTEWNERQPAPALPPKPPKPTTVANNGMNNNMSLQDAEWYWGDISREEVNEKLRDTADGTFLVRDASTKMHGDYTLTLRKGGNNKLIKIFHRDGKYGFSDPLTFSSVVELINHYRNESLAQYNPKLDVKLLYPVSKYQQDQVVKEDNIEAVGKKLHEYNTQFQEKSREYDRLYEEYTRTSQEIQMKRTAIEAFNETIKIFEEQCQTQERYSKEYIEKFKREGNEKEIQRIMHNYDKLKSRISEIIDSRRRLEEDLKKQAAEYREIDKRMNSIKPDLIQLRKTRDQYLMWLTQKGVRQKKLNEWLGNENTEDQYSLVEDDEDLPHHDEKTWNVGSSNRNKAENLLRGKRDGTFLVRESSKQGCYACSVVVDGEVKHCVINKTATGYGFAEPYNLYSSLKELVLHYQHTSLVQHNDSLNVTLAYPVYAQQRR
# Sequence of PI3Kβ (Q8BTI9 whole entry): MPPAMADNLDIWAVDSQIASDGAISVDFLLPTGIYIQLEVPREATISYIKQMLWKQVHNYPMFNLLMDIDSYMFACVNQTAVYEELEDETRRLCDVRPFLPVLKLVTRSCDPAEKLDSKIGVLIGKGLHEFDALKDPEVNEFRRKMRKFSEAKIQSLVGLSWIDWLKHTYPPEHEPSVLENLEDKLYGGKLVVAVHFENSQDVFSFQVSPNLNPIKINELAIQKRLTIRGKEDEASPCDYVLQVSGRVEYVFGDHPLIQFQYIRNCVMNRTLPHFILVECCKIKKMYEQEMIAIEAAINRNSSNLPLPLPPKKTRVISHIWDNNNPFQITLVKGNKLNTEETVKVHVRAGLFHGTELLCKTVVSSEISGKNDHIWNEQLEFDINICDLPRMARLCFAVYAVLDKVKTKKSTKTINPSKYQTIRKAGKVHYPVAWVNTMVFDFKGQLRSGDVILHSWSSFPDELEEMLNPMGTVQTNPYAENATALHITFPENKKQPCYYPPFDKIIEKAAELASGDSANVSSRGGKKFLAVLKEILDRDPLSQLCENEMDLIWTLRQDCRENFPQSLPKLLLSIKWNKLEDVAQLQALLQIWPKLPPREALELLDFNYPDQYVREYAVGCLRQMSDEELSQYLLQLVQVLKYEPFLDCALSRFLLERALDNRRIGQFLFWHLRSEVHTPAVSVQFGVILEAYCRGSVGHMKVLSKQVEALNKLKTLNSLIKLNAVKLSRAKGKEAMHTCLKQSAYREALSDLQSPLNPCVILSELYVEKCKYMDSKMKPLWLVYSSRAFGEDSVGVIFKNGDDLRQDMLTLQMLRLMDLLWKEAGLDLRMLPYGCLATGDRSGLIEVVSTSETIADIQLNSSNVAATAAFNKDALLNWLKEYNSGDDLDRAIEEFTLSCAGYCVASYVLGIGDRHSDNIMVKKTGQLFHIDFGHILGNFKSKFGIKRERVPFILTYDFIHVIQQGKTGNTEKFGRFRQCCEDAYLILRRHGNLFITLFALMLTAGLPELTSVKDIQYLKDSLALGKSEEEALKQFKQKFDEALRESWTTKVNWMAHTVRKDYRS
IC50 [1],"IC50 [3, 4]",IC50 ([3]; 'Less than 100 nM'),Compound,EC50 ([2]; 'Less than 100 nM'),EC50 ([2]; 1 μM to 100 nM)
1000 to 10000 nM,–,–,C[C@H](Nc1ncnc2cccnc12)c1cc2cccc(C(F)(F)F)c2c(=O)n1-c1ccccc1 [III-4],< 100 nM,–
1000 to 10000 nM,–,–,C[C@H](Nc1ncnn2ccnc12)c1cc2cccc(C(F)(F)F)c2c(=O)n1-c1ccccc1 [III-27],< 100 nM,–
1000 to 10000 nM,–,–,C[C@H](Nc1ccnn2ccnc12)c1cc2scc(Cl)c2c(=O)n1-c1ccccc1 [II-22],–,–
1000 to 10000 nM,–,–,C[C@H](Nc1nc(N)ncc1C#N)c1cc2cccc(C(F)(F)F)c2c(=O)n1-c1cccc(F)c1 [III-45],< 100 nM,–
1000 to 10000 nM,> 10000 nM,–,COc1ncc(-c2cccc3cc([C@H](C)Nc4ccnn5ccnc45)n(-c4ccccc4)c(=O)c23)cn1 [II-48],–,–
1000 to 10000 nM,–,–,C[C@H](Nc1ncnc2scnc12)c1cc2cccc(C(F)(F)F)c2c(=O)n1-c1cccc(F)c1 [III-10],< 100 nM,–
1000 to 10000 nM,–,–,"C[C@H](Nc1ccnc2scnc12)c1cc2cccc(C(F)(F)F)c2c(=O)n1-c1ccccc1 [III-36, (S)-2-phenyl-3-(1-(thiazolo[5,4-b]pyridin-7-ylamino)ethyl)-8-(trifluoromethyl)isoquinolin-1(2H)-one]",< 100 nM,–
1000 to 10000 nM,–,–,C[C@H](Nc1ccnn2ccnc12)c1cc2cccc(Cl)c2c(=O)n1C1CC1 [II-11],< 100 nM,–
1000 to 10000 nM,–,–,C[C@H](Nc1ncnn2ccnc12)c1cc2cccc(Cl)c2c(=O)n1-c1ccccc1 [IV-12],–,–
1000 to 10000 nM,–,–,C[C@H](Nc1nc(N)nc2[nH]cnc12)c1cc2cccc(C(F)(F)F)c2c(=O)n1-c1cccc(F)c1 [III-30],< 100 nM,–
1000 to 10000 nM,1000 to 10000 nM,–,C[C@H](Nc1nc(N)nc2scnc12)c1cc2cccc(C(F)(F)F)c2c(=O)n1-c1ccccc1 [III-25],–,–
1000 to 10000 nM,1000 to 10000 nM,–,C[C@H](Nc1ncnn2ccnc12)c1cc2cccc(Cl)c2c(=O)n1-c1cccc(F)c1 [IV-13],–,–
1000 to 10000 nM,–,–,C[C@H](Nc1ncnc2scnc12)c1cc2scc(C(F)(F)F)c2c(=O)n1-c1ccccc1 [III-39],< 100 nM,–
1000 to 10000 nM,–,–,C[C@H](Nc1ncnc2cccnc12)c1cc2scc(Cl)c2c(=O)n1-c1ccccc1 [Compound I-29],–,–
1000 to 10000 nM,> 10000 nM,–,C[C@H](Nc1nc(N)nc2cccnc12)c1cc2cccc(-c3cnn(C)c3)c2c(=O)n1-c1ccccc1 [Compound I-36],–,–
1000 to 10000 nM,–,–,C[C@H](Nc1ccnc2ccnn12)c1cc2cccc(Cl)c2c(=O)n1C1CC1 [II-7],< 100 nM,–
1000 to 10000 nM,> 10000 nM,–,Cc1cc(-c2cccc3cc([C@H](C)Nc4ncnc5cccnc45)n(-c4ccccc4)c(=O)c23)cnc1C [Compound I-44],–,–
1000 to 10000 nM,–,–,"C[C@H](Nc1ccnn2ccnc12)c1cc2cccc(C(F)(F)F)c2c(=O)n1-c1ccccc1 [III-8, (S)-3-(1-(imidazo[1,2-b]pyridazin-8-ylamino)ethyl)-2-phenyl-8-(trifluoromethyl)isoquinolin-1(2H)-one]",< 100 nM,–
1000 to 10000 nM,–,–,C[C@H](Nc1ncnc2[nH]cnc12)c1cc2cccc(C(F)(F)F)c2c(=O)n1-c1ccccc1 [III-3],< 100 nM,–
1000 to 10000 nM,–,–,"C[C@H](Nc1ccnc2ccnn12)c1cc2cccc(Cl)c2c(=O)n1-c1ccccc1 [II-2, (S)-8-chloro-2-phenyl-3-(1-(pyrazolo[1,5-a]pyrimidin-7-ylamino)ethyl)isoquinolin-1(2H)-one]",< 100 nM,–
–,1000 to 10000 nM,–,C[C@H](Nc1ccnc2cccnc12)c1cc2cccc(C(F)(F)F)c2c(=O)n1-c1ccccc1 [III-31],< 100 nM,–
–,> 10000 nM,–,Cc1ncc(-c2cccc3cc([C@H](C)Nc4nc(N)nc5cccnc45)n(-c4ccccc4)c(=O)c23)cn1 [Compound I-59],< 100 nM,–

IC50 [1],"IC50 [3, 4]",IC50 ([3]; 'Less than 100 nM'),Compound,EC50 ([2]; 'Less than 100 nM'),EC50 ([2]; 1 μM to 100 nM)
–,> 10000 nM,–,C[C@H](Nc1ncnc(N)c1C#N)c1cc2cccc(C(F)(F)F)c2c(=O)n1-c1ccccc1 [III-42],< 100 nM,–
–,> 10000 nM,–,Cc1ncc(-c2cccc3cc([C@H](C)Nc4ncnc5cccnc45)n(-c4ccccc4)c(=O)c23)cn1 [Compound I-41],< 100 nM,–
–,> 10000 nM,–,CNc1nc(N[C@@H](C)c2cc3cccc(NC)c3c(=O)n2-c2ccccc2)c2ncccc2n1 [Compound I-95],–,100 to 1000 nM
1000 to 10000 nM,> 10000 nM,–,Cc1nn(C)cc1-c1cccc2cc([C@H](C)Nc3ncnc4cccnc34)n(-c3ccccc3)c(=O)c12 [Compound I-47],–,–
1000 to 10000 nM,–,–,C[C@H](Nc1nc(N)ncc1C#N)c1cc2cccc(C(F)(F)F)c2c(=O)n1-c1ccccc1 [III-44],< 100 nM,–
–,1000 to 10000 nM,–,Cc1cncc(-c2cccc3cc([C@H](C)Nc4nc(N)nc5cccnc45)n(-c4ccccc4)c(=O)c23)c1 [Compound I-75],< 100 nM,–
–,–,< 100 nM,C[C@H](Nc1ncnc2scnc12)c1cc2cccc(C(F)(F)F)c2c(=O)n1-c1ccccc1 [III-5],< 100 nM,–
–,> 10000 nM,–,COc1ncc(-c2cccc3cc([C@H](C)Nc4ncnc5cccnc45)n(-c4ccccc4)c(=O)c23)cn1 [Compound I-42],< 100 nM,–
–,1000 to 10000 nM,–,C[C@H](Nc1nc(N)nc2cccnc12)c1cc2cccc(-c3cnc4ccccc4c3)c2c(=O)n1-c1ccccc1 [Compound I-82],< 100 nM,–
–,> 10000 nM,–,COc1ncc(-c2cccc3cc([C@H](C)Nc4nc(N)nc5cccnc45)n(-c4ccccc4)c(=O)c23)cn1 [Compound I-57],< 100 nM,–
–,> 10000 nM,–,CNc1cccc2cc([C@H](C)Nc3nc(N)nc4cccnc34)n(-c3ccccc3)c(=O)c12 [Compound I-101],< 100 nM,–
1000 to 10000 nM,–,–,C[C@H](Nc1ccnc2ccnn12)c1cc2scc(Cl)c2c(=O)n1-c1ccccc1 [II-20],–,–
1000 to 10000 nM,–,–,C[C@H](Nc1nc(N)nc2cccnc12)c1cc2cccc(C(F)(F)F)c2c(=O)n1-c1ccccc1 [III-23],–,–
1000 to 10000 nM,–,–,C[C@H](Nc1ncnc2[nH]cc(C(N)=O)c12)c1cc2cccc(C(F)(F)F)c2c(=O)n1-c1ccccc1 [III-20],–,–
–,1000 to 10000 nM,–,C[C@H](Nc1nc(N)ncc1C(F)(F)F)c1cc2cccc(C(F)(F)F)c2c(=O)n1-c1cccc(F)c1 [III-46],–,100 to 1000 nM
–,1000 to 10000 nM,–,Cc1cccc2cc([C@H](C)Nc3nc(N)nc4cccnc34)n(-c3cccc(F)c3)c(=O)c12 [Compound I-85],< 100 nM,–
1000 to 10000 nM,–,–,C[C@H](Nc1ncnc2ccnn12)c1cc2cccc(Cl)c2c(=O)n1-c1ccccc1 [II-24],–,–
1000 to 10000 nM,1000 to 10000 nM,–,C[C@H](Nc1ncnc2[nH]cc(F)c12)c1cc2cccc(C(F)(F)F)c2c(=O)n1-c1ccccc1 [III-18],–,–
–,1000 to 10000 nM,–,Cc1cc(-c2cccc3nc([C@H](C)Nc4nc(N)nc5cccnc45)n(-c4ccccc4)c(=O)c23)ccn1 [Compound I-88],< 100 nM,–
–,–,< 100 nM,C[C@H](Nc1ccnn2ccnc12)c1cc2cccc(Cl)c2c(=O)n1-c1ccccc1 [II-10],< 100 nM,–
–,> 10000 nM,–,COc1ncc(-c2cccc3cc([C@H](C)Nc4nc(N)nc5cccnc45)n(-c4cccc(F)c4)c(=O)c23)cn1 [Compound I-78],< 100 nM,–
